Measured values taken from article PMC5108698 (Biopolymers, 2016).
Entries after “also recorded” stand apart in the source; their conditions may differ.

Legend:
pancreatic trypsin = pancreatic trypsin (Sus scrofa, UniProt P00761); test: Trypsin inhibitory assay; assay type: biochemical; settings: recombinantly produced SFTI-1
[1] = NMR characterization in solution; assay type: physicochemical; settings: in-cell produced SFTI-1, approximately 0.2 mM, 80 mM potassium phosphate pH 6.5, 90% H2O/10% 2H2O, 298 K
[2] = test system: trypsin (trypsin-sepharose beads); settings: incubated with trypsin; ref [34]; cited from earlier work
[3] = ref [10], [12]; cited from earlier work
mammalian cells = settings: ref [13]; cited from earlier work
cellular membranes = settings: ref [13]; cited from earlier work

Chain of pancreatic trypsin (P00761 9-231): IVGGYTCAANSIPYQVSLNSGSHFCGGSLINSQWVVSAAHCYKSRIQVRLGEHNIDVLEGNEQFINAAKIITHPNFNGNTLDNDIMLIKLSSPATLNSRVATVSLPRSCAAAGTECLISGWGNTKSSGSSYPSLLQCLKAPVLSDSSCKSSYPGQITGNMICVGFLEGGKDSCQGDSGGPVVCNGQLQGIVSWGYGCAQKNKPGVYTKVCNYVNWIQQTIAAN

CC[C@H](C)[C@@H]1NC(=O)[C@@H]2CCCN2C(=O)[C@@H]2CCCN2C(=O)[C@H]([C@@H](C)CC)NC(=O)[C@H](CO)NC(=O)[C@H](CCCCN)NC(=O)[C@H]([C@@H](C)O)NC(=O)[C@@H]2CSSC[C@H](NC1=O)C(=O)N[C@@H](Cc1ccccc1)C(=O)N1CCC[C@H]1C(=O)N[C@@H](CC(=O)O)C(=O)NCC(=O)N[C@@H](CCCNC(=N)N)C(=O)N2 [SFTI-1, sunflower trypsin inhibitor 1]
inhibition of trypsin (pancreatic trypsin): actively inhibit trypsin; also recorded: fully active | aggregation state in solution [1]: monodispersed | equilibrium between cyclic and linear forms with trypsin [2]: reach equilibrium between the cyclic and the linear forms when incubated with trypsin | stability to thermal or enzymatic degradation [3]: exceptional stability to thermal or enzymatic degradation | toxicity to mammalian cells (mammalian cells): non-toxic to mammalian cells | crossing of cellular membranes (cellular membranes): able to cross cellular membranes
